Values quoted from earlier work in patent US20180200208A1, “COMPOSITIONS FOR IMPROVING OR MAINTAINING MYOCARDIAL FUNCTION” (RepoCeuticals ApS, priority 2015, published 2018).
Values belong to the compound of their own block, whether it stands above or below them.

Experiments:
recombinant MT1 receptor = recombinant MT1 receptor (Homo sapiens, UniProt P48039); details: relative to melatonin
recombinant MT2 receptor = biological target: T1, recombinant MT2 receptor (Homo sapiens, UniProt P49286); details: relative to melatonin
T1 sequence (P49286 1-362): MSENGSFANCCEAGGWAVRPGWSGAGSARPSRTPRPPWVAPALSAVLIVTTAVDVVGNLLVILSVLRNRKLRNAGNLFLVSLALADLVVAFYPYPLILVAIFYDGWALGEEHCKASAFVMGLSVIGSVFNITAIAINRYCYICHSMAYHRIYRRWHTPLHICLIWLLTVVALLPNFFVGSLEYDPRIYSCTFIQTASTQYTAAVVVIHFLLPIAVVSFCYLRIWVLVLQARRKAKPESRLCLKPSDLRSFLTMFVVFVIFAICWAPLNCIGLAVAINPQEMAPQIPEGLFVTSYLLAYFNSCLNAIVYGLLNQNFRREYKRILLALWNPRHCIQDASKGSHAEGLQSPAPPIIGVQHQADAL

[1] = at 2-8° C.
[2] = test system: patients with primary sleep disorders; details: oral doses of up to 5 mg

Sequence of recombinant MT1 receptor (P48039 whole entry): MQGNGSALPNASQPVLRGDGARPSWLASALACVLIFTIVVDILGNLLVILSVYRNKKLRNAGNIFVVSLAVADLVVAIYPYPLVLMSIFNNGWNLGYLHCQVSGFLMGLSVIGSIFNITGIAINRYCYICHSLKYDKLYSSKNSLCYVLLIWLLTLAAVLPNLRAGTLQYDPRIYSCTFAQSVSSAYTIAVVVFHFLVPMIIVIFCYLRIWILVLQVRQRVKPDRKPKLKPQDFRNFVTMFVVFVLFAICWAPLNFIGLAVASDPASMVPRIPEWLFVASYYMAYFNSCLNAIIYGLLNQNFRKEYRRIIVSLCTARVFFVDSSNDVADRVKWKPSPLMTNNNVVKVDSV

affinity for recombinant MT1 receptor as % of that of melatonin (recombinant MT1 receptor): 20% | affinity for recombinant MT2 receptor as % of that of melatonin (recombinant MT2 receptor): 13%
Structure (SMILES): COc1cc2c(CCNC(C)=O)c[nH]c2cc1O [6-OHM, 6-hydroxymelatonin]

solubility in DMSO: soluble in DMSO | solubility in water: insoluble in water | long-term stability [1]: good long-term stability
Structure (SMILES): COc1ccc(NC=O)c(C(=O)CCNC(C)=O)c1 [AFMK, N^1-acetyl-N^2-formyl-5-methoxykynuramine]

solubility in ethanol, dimethyl sulfoxide and various oils: can be dissolved | solubility in water: almost water-insoluble
Structure (SMILES): COC1=C(OC)C(=O)C(C/C=C(\C)CC/C=C(\C)CC/C=C(\C)CC/C=C(\C)CC/C=C(\C)CC/C=C(\C)CC/C=C(\C)CC/C=C(\C)CC/C=C(\C)CCC=C(C)C)=C(C)C1=O [Coenzyme Q10]

solubility in DMSO: soluble in DMSO | solubility in water: insoluble in water
Structure (SMILES): COc1ccc2[nH]cc(CCNC(C)=O)c2c1 [Melatonin, N-acetyl-5-methoxytryptamine]
increase of sleep duration (average) [2]: 7 to 8 min | reduction of sleep latency (average) [2]: 7 to 8 min

Structure (SMILES): CC(=O)NCCc1c[nH]c2ccc(O)cc12 [N-acetylserotonin]
affinity for recombinant MT1 receptor as % of that of melatonin (recombinant MT1 receptor): 0.14% | affinity for recombinant MT2 receptor as % of that of melatonin (recombinant MT2 receptor): 0.22%

solubility in ethanol, dimethyl sulfoxide and various oils: readily soluble | solubility in water: almost insoluble in water
Structure (SMILES): O=C1C[C@@H](c2ccc(O)cc2)Oc2cc(O)cc(O)c21 [Naringenin, naringenin]

solubility in ethanol, dimethyl sulfoxide and various oils: readily soluble | solubility in water: almost insoluble in water
Structure (SMILES): Oc1ccc(C=Cc2cc(O)cc(O)c2)cc1 [Resveratrol, resveratrol]
